# In patent publication US12466834B2, “Imidazodiazepinediones and methods of use thereof” (GFB (ABC), LLC, priority 2018, dated 2025):
# pEC50, pIC50: −log10 of the molar value.
# What was measured:
# Type in all cases: cell-based
# human TRPC5 [1] = biological target: T1, human TRPC5 (Homo sapiens, UniProt Q9UL62); assay: Automated patch clamp assay (QPatch), antagonist mode; settings: HEK-TREx hTRPC5 cells; channel activated with Rosiglitazone 30 μM; normalised to ML-204 block; read-out: Qpatch Potency Range
# T1 construct: expressed in transfected cells
# T1 sequence (Q9UL62 1-973): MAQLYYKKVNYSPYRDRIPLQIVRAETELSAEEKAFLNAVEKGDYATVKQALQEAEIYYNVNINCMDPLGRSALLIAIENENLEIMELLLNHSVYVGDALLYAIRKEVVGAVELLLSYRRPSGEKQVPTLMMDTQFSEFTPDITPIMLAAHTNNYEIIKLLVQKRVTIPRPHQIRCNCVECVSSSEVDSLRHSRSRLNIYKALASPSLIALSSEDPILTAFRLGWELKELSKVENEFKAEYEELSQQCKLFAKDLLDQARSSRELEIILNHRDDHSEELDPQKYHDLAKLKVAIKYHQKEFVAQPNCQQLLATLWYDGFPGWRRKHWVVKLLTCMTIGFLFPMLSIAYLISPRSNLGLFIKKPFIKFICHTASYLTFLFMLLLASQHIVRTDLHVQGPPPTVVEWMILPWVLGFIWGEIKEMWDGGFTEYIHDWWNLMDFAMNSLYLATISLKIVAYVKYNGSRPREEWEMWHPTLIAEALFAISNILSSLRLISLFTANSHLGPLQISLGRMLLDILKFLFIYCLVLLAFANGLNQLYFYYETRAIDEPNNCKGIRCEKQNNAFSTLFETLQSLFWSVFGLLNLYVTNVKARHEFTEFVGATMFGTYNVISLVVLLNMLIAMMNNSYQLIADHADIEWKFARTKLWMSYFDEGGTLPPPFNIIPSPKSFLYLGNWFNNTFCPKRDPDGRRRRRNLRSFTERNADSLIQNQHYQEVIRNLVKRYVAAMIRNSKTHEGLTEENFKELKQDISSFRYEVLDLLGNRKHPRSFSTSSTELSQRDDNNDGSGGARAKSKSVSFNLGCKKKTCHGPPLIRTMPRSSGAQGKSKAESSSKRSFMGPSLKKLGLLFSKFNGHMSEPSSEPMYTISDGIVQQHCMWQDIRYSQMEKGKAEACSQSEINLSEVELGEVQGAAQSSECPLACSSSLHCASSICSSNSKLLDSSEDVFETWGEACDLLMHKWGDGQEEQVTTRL
# Procedure: (§1) ICLN-1633 cells (HEK-TREx hTRPC5) expressing TRPC5 were generated as follows. Commercially available HekTrex-293 cells were seeded at 0.7×10^6 cells/well in a 1×6-well plate 24 hrs prior to transfection using 2 mL cell growth media containing no antibiotics (1× DMEM/high glucose (Hyclone #SH30022.02); 10% fetal bovine serum (Sigma) 2 mM sodium pyruvate, 10 mM HEPES). The human TRPC5 coding sequence (NM_012471 with a silent T478C mutation) was cloned into pcDNA5/TO (Invitrogen; Cat No. V103320) using hygromycin as the resistance gene and the plasmid (SEQ ID NO:1) propagated using T-Rex-293 cells (Invitrogen; Cat No. R71007) following manufacturer's directions. On day 2, 2 μg of plasmid DNA plus 6 μl of Xtreme-GENE HP reagent in Optimem (200 μl total volume) was prepared and incubated for 15 min at room temperature. This plasmid solution was then gently overlayed dropwise onto each well and the plate was gently swirled to mix complex with the media for approximately 30 seconds. Transfected cells were incubated at 37° C. in a 10% CO2 incubator for 24 hrs. The transfected cells were harvested and transferred into 2×150 mm dishes containing cell growth media with no antibiotics at 37° C.
# The next day selection was initiated to generate a stable pool by adding cell growth media containing 150 μg/mL Hygromycin and 5 μg/mL Blasticidin and cells were allowed to grow. Media with the selection agent was changed every 1-2 days as needed to remove dead cells. After 7 days, the hygromycin concentration was reduced to 75 μg/mL and cells growth was allowed to continue.
# Single clones were selected as follows. The stable pool was diluted to 10 cells/mL and seeded (100 μl/well) into 24×96 well plates (˜1 cell/well) and allowed to grow for 7 days in cell growth media. Fresh media (100 μl) was added and the cells allowed to grow for another 1-2 weeks and then stored frozen or used immediately.
# The automated electrophysiological assay was carried out at room temperature. On the day of the experiment, TRPC5 cells were cultured according to our Standard Operating Procedure. Briefly, cells were harvested using TrypLE™ Express, re-suspended in serum free medium, added to the automated platform and used within 0.5-3 hours. Internal and external physiological solutions were freshly prepared prior to the assay. The external solution contained: 145 mM NaCl, 4 mM KCl, 2 mM CaCl2, 1 mM MgCl2, 10 mM HEPES, 10 mM glucose, pH 7.4 with NaOH and 310 mOsm/L. The internal solution contained 120 mM L-aspartic acid, 120 mM CsOH·H2O, 20 mM CsCl, 2 mM MgCl2, 8.8 mM CaCl2, 10 mM EGTA, 10 mM HEPES and 2 mM Na2ATP; pH 7.2 with CsOH and 330 mOsm/L. The free internal Ca^2+ concentration was buffered to 1 μM, according to the WCabuf software. The automated electrophysiological platform QPatch 16 from Sophion (Denmark) was used to carry out the compounds profiling. The series resistance and quality of seals were continuously monitored during the experiments. Data were analyzed using Sophion QPatch assay software 5.6 (Odense). Data were normalized using the maximum activation obtained during the pre-compound agonist application as the top value (1.0) and maximum inhibition induced by ML-204 as the bottom value (0.0). IC50 values were calculated using a least squares regression algorithm (Hill equation).
# To monitor the ion currents, a voltage ramp from −100 mV to +100 mV, over 300 ms, was applied every 10 seconds, from a holding potential of −60 mV. Antagonist-mode: After recording for a minimum of 60 seconds control period, the EC60 concentration of the TRPC5 agonist, Rosiglitazone (30 μM), was applied to activate the channel. After reaching steady-state, co-application of increasing concentrations of test compound were applied followed by two applications of Rosiglitazone EC60 and a saturating concentration of the specific blocker ML-204 (100 μM).
# human TRPC5 [2] = biological target: T1, human TRPC5; assay: FLIPR calcium assay, inhibition of riluzole-activated TRPC5 calcium response; settings: ICLN-1633 cells; riluzole 30 μM stimulation; Fluo-4 calcium response; read-out: Inhibitor Potency Range (FLIPR)
# Procedure: as §1
# (§2) Compounds were made up to, or supplied as a 10 mM stock solution generally using DMSO as the vehicle. 10-point dose response curves were generated using the Echo-550 acoustic dispenser. Compound source plates were made by serially diluting compound stocks to create 10 mM, 1 mM, and 0.1 mM solutions in DMSO into Echo certified LDV plates. The Echo then serially spotted 100% DMSO stock solutions into source dose response plates to generate a 4-fold dilution scheme. 100% DMSO was added to the spotted dose response plates to bring the final volume to 5 μl. 300 nl of the dose response stock plate was then spotted into pre-incubation and stimulation assay plates. 50 μl of pre-incubation buffer and 100 μl of stimulation buffer was then added to the plates resulting in a final assay test concentration range of 30 μM to 0.0001 μM with a final DMSO concentration of 0.3%.
# (§3) Human ICLN-1633 cells expressing were plated onto 384 well, black poly-D-lysine-coated microplates and maintained in TRPC5 growth media the day prior to use for experiments. TRPC5 expression was induced by the application of 1 μg/mL tetracycline at the time of plating. Media was removed from the plates and 10 μl of 4 μM of Fluo-4 AM (mixed with equal volume of Pluronic F-127) in Earls's Balanced Salt Solution (EBSS) was added to the cells. Cells were incubated at room temperature, protected from light, for 60-90 minutes. After the incubation period, the dye was removed and replaced with 10 μl of EBSS. Cell, pre-incubation and stimulation plates were loaded onto the FLIPR-II and the assay was initiated. The FLIPR measured a 10 second baseline and then added 10 μl of 2× compounds (or controls). Changes in fluorescence were monitored for an additional 5 minutes. After the 5 minute pre-incubation, 20 μl of 2× riluzole (with 1× compound or controls) was added to the cell plate. The final riluzole stimulation concentration in the assay was 30 μM. After the riluzole addition, changes in fluorescence were monitored for an additional 5 minutes. Reduction in the riluzole-activated calcium response relative to control wells was reported as inhibition. A compound-mediated increase in the riluzole response relative to control riluzole response (no test agent present) with no enhancement of calcium entry during preincubation phase was reported as an agonist response.
# Compound inhibition of TRPC5 calcium response was determined as follows. After the riluzole addition, fluorescence was monitored for a 5-minute period. For inhibition, the maximum relative fluorescence response (minus the control response of 1 μM of an internal control compound known to maximally block TRPC5 calcium response, the “REF INHIB” in the formula below) was captured and exported from the FLIPR. […]
# human TRPC5 [3] = biological target: T1, human TRPC5; assay: FLIPR calcium assay, compound activation (agonism) of TRPC5 calcium response; set-up: key to Agonist Potency Range (FLIPR): A=0.001-1 μM; B=1-10 μM; C=>1 μM; D=tested with a positive result for agonism, but EC50 not calculated; settings: ICLN-1633 cells, Fluo-4 calcium response; for pEC50: read-out: Agonist Potency Range (FLIPR)
# Procedure: as §1, §2, §3
# Compound activation (agonism) of TRPC5 calcium response was determined as follows. After the initial compound addition, fluorescence was monitored for 5 minutes. The maximum relative fluorescence response (minus the control response of EBSS buffer alone) is captured and exported from the FLIPR. Compound activation is calculated using the following formula: […]
pIC50 (human TRPC5 [1]),pIC50 (human TRPC5 [2]),Agonist Potency Range (FLIPR) (human TRPC5 [3]),pEC50 (human TRPC5 [3]),Structure (SMILES)
,< 5.00,,6.00 to 9.00,O=C1c2c(nc(Oc3cccc(F)c3)n2Cc2ccc(Cl)cc2)N2CCC[C@@H]2C(=O)N1CCCO [Compound 27]
,< 5.00,,6.00 to 9.00,CC(C)Oc1nc2c(n1Cc1ccc(Cl)cc1)C(=O)N(CCCO)C(=O)[C@@H]1CCCN21 [Compound 28]
,< 5.00,,5.00 to 6.00,CC(C)Oc1nc2c(n1Cc1ccc(Cl)cc1)C(=O)N(CCCO)C(=O)[C@H]1CCCN21 [Compound 29]
,< 5.00,,5.00 to 6.00,CCCOc1nc2c(n1Cc1ccc(Cl)cc1)C(=O)N(CCCO)C(=O)[C@H]1CCCN21 [Compound 30]
,< 5.00,,6.00 to 9.00,CCCOc1nc2c(n1Cc1ccc(Cl)cc1)C(=O)N(CCCO)C(=O)[C@@H]1CCCN21 [Compound 31]

# The remaining lines, values behind:
Structure (SMILES),pIC50 (human TRPC5 [1]),pIC50 (human TRPC5 [2]),Agonist Potency Range (FLIPR) (human TRPC5 [3]),pEC50 (human TRPC5 [3])
"CCCCn1c(Oc2cccc(F)c2)nc2c1C(=O)N(CCCO)C(=O)[C@@H]1CCCN21 (single isomer, unassigned) [Compound 24]",6.00 to 9.00,6.00 to 9.00,,
"CCCCn1c(Oc2cccc(F)c2)nc2c1C(=O)N(CCCO)C(=O)[C@H]1CCCN21 (single isomer, unassigned) [Compound 25]",,< 5.00,D,
"CN1C(=O)CN(CCCO)C(=O)c2c1nc(Oc1cccc(OC(F)(F)F)c1)n2Cc1ccc(Cl)cc1 [Compound 2, 1-[(4-chlorophenyl)methyl]-7-(3-hydroxypropyl)-4-methyl-2-[3-(trifluoromethoxy)phenoxy]-1H,4H,5H,6H,7H,8H-imidazo[4,5-e][1,4]diazepine-5,8-dione]",4.52 to 6.00,5.00 to 6.00,,
CN1C(=O)CN(CC(F)(F)CO)C(=O)c2c1nc(Oc1cccc(OC(F)(F)F)c1)n2Cc1ccc(Cl)cc1 [Compound 11],< 4.52,5.00 to 6.00,,
